According to patent US11207299B2, “Biphenyl sulfonamide compounds for the treatment of type IV collagen diseases” (Travere Therapeutics, Inc., priority 2018, dated 2021):
“Also recorded” adds a separate entry of the source. Marks after values point to notes of the source that are not given here.

Experiments:
[1] = tested on: murine models of Alport syndrome; conditions: cited from earlier work; for Glomerulosclerosis and interstitial fibrosis in murine models of Alport syndrome: literature (Dufek et al. 2016; Gross et al. 2003)
[2] = tested on: autosomal Alport mice (COL4A3^−/−); assay: Hearing study in Alport mice (ABR, noise exposure, strial capillary basement membrane TEM); assay type: in vivo, mouse
From the text: (§1) Vehicle or sparsentan was given daily by oral gavage to autosomal Alport mice (COL4A3^−/−) on the 129/Sv background (male and female) in five separate studies: a pilot study, an early intervention study (treated from 3-7 weeks of age), a late intervention study (treated from 5-7 weeks of age after the onset of glomerular (GM) changes), a lifespan study, and a hearing study (FIG. 1). The early intervention, late intervention, lifespan, and hearing studies also included mice treated with a comparator, losartan, which was given orally at 3-4 weeks of age in the early intervention study, in drinking water at 4-7 weeks of age in the early intervention study, and in drinking water at 5-7 weeks in the late intervention study.
(§2) Efficacy renal endpoints included blood urea nitrogen (BUN), proteinuria (urine protein to creatinine ratio, or UP/C), glomerulosclerosis, tubulointerstitial fibrosis, leucocyte infiltration, and glomerular basement morphology (GBM) using transmission electron microscopy (TEM). Endpoints in the inner ear included auditory brain stem response (ABR) threshold as a measure of noise-induced hearing loss, strial capillary basement membrane thickness, and inner ear pathology by TEM.
For the hearing study, wild-type or Alport mice were treated according to daily from 3-8.5 weeks of age by oral gavage with vehicle (0.5% methylcellulose 4000 cps/0.25% Tween® 80 in distilled water) or 120 mg/kg sparsentan or losartan at 20 mg/kg by oral gavage from 3-4 weeks of age (during weaning) and 10 mg/kg in drinking water from 4-7 weeks of age (n=5). The progression of Alport disease was assessed at 7 weeks of age by the amount of proteinuria (via urinalysis reagent strips—data not shown). Strial capillary basement membrane (SCBM) width was analyzed by transmission electron microscopy (TEM), and accumulation of extracellular matrix (ECM) in SCBM was determined by immunofluorescence (IF) microscopy using an antibody to laminin α2. Hearing ability and sensitivity to noise were assessed between 7 and 8 weeks of age by Auditory Brainstem Response (ABR), pre-noise exposure. A subset of each treatment group was then exposed to a metabolic noise stress for 10 hours. Mice receiving the noise treatment were randomly selected for overstimulation with a 106 dB sound pressure level (SPL), narrow band noise (8-16 kHz) for 10 hours, usually 10 PM to 8 AM. The noise exposure was conducted in a sound-isolation booth. A speaker was suspended from the ceiling. Wire cages with individual compartments were located midway between the floor and speaker. Mice were hydrated prior to placement in the cage and were provided free access to food. The noise exposure occurred at 8 weeks of age. The amount of hearing loss caused by the metabolic noise exposure was determined 5 days post-exposure.

[3] = tested on: autosomal Alport mice (COL4A3^−/−); assay: Early intervention study in Alport mice (treated from 3-7 weeks of age); assay type: in vivo, mouse
From the text: as §1, §2
In the early intervention study, wild-type and Alport mice were dosed daily by oral gavage with vehicle or sparsentan at 120 mg/kg from 3 to 7 weeks of age (7-8 mice per group), or with losartan at 20 mg/kg by oral gavage from 3-4 weeks of age (during weaning) and 10 mg/kg in drinking water from 4-7 weeks of age.
(§3) For the pilot, early intervention, late intervention, and lifespan studies, spot urine was sampled pre-study and weekly during treatment and analyzed for protein (UP) and creatinine (C) to determine proteinuria (UP/C). At the end of each study the animals were euthanized, blood samples were taken, BUN was measured from serum, and kidneys were harvested for structural and immuno-fluorescent measurements. Glomerulosclerosis was assessed by immunofluorescence (IF) using an antibody to fibronectin (FN). Visual counting of the number of sclerotic glomeruli as a proportion of the total number of glomeruli per slide was used to calculate the percentage of sclerotic glomeruli. Sections were co-stained with an anti-CD45 antibody to indicate leucocyte infiltration. Tubulointerstitial fibrosis was determined by IF of kidney sections using an antibody to collagen 1 (COL1). Tubulointerstitial fibrosis (TIF) scoring was conducted by visual assessment of the COL1 positive area as a percentage of the total cortical area and was performed blinded. The fibrosis scoring (“Fibrosis Score”) was categorized according to visual judgment of percentage of total cortical area, as: 0=<5%, 1=5-10%, 2=10-25%, 3=25-50%, 4=50-75%, or 5=75-100%. Ultrastructural changes in GBM and podocyte morphology were observed using transmission electron microscopy (TEM).

[4] = tested on: autosomal Alport mice (COL4A3^−/−); assay: Late intervention study in Alport mice (treated from 5-7 weeks of age); assay type: in vivo, mouse
From the text: as §1, §2
In the late intervention study, wild-type or Alport mice (8 mice per group) were dosed for 14 days according to the same methods used in the early intervention study but beginning at 5 weeks of age, i.e., dosed with vehicle, 120 mg/kg of sparsentan, or 10 mg/kg losartan starting at 5 weeks of age for 14 days. In this study, untreated Alport mice at 5 weeks of age were also used as baseline controls.
as §3
For a baseline comparison for late intervention, glomerulosclerosis and fibrosis were determined in kidney samples taken from 5-week-old untreated Alport mice.

[5] = tested on: laminin α2 in stria of Alport mice; assay: Immunofluorescence of laminin α2 in stria of Alport mice; assay type: in vivo, mouse; conditions: losartan-treated Alport mice (10 mg/kg), early intervention study
Experimental: In the pilot study, designed to determine an optimal efficacious dose of sparsentan, Alport mice (3-4 per group) were dosed with vehicle (0.5% methylcellulose 4000 cps/0.25% Tween® 80 in distilled water) or sparsentan at 60 mg/kg or 200 mg/kg from 3 to 7 weeks of age for 28 days. Although 200 mg/kg sparsentan was efficacious in the pilot study, BUN levels were higher than those of Alport mice dosed with 60 mg/kg sparsentan (Table 1; FIG. 2A; FIG. 2B). This observation led to the selection of a 120 mg/kg dose of sparsentan to take forward into the early intervention study. During the pilot study, blood pressure (BP) was measured weekly using the CODA2 tail cuff system. […]
For the hearing study, wild-type or Alport mice were treated according to daily from 3-8.5 weeks of age by oral gavage with vehicle (0.5% methylcellulose 4000 cps/0.25% Tween® 80 in distilled water) or 120 mg/kg sparsentan or losartan at 20 mg/kg by oral gavage from 3-4 weeks of age (during weaning) and 10 mg/kg in drinking water from 4-7 weeks of age (n=5). The progression of Alport disease was assessed at 7 weeks of age by the amount of proteinuria (via urinalysis reagent strips—data not shown). […] Hearing ability and sensitivity to noise were assessed between 7 and 8 weeks of age by Auditory Brainstem Response (ABR), pre-noise exposure. […]

[6] = tested on: autosomal Alport mice (COL4A3^−/−); assay: Lifespan study in Alport mice; assay type: in vivo, mouse; conditions: dosing as in early intervention study, continued until 10% loss of peak body weight; P<0.05
From the text: as §1
In the lifespan study, Alport mice (n=10) were dosed using the same methodology as in the early intervention study, except that dosing was continued until mice had lost 10% of their peak body weight, after which they were euthanized.
For the pilot, early intervention, late intervention, and lifespan studies, spot urine was sampled pre-study and weekly during treatment and analyzed for protein (UP) and creatinine (C) to determine proteinuria (UP/C). At the end of each study the animals were euthanized, blood samples were taken, BUN was measured from serum, and kidneys were harvested for structural and immuno-fluorescent measurements. Glomerulosclerosis was assessed by immunofluorescence (IF) using an antibody to fibronectin (FN). Visual counting of the number of sclerotic glomeruli as a proportion of the total number of glomeruli per slide was used to calculate the percentage of sclerotic glomeruli. Sections were co-stained with an anti-CD45 antibody to indicate leucocyte infiltration. Tubulointerstitial fibrosis was determined by IF of kidney sections using an antibody to collagen 1 (COL1). Tubulointerstitial fibrosis (TIF) scoring was conducted by visual assessment of the COL1 positive area as a percentage of the total cortical area and was performed blinded. […]

[7] = Alport mice, losartan 20/10 mg/kg, at 7 wk of age, mean ± SD
[8] = Alport mice late intervention, losartan 10 mg/kg, mean ± SD

Cc1cc2c(cc1CC(=O)c1sccc1S(=O)(=O)Nc1onc(C)c1Cl)OCO2 [sitaxentan]
Glomerulosclerosis and interstitial fibrosis in murine models of Alport syndrome [1]: ameliorate
Basement membrane in the cochlea of the ear in Alport mice ([1]; literature (Meehan et al. 2016)): protect

CCOC(=O)[C@H](CCc1ccccc1)N[C@@H](C)C(=O)N1[C@H](C(=O)O)C[C@@H]2CCC[C@@H]21 [ramipril]
Glomerulosclerosis and interstitial fibrosis in murine models of Alport syndrome [1]: ameliorate

CCCCc1nc(Cl)c(CO)n1Cc1ccc(-c2ccccc2-c2nnn[nH]2)cc1 [losartan, Losartan, reference compound]
Hearing ability before noise exposure (ABR) ([2]; 7-8-week-old mice, sparsentan 120 mg/kg or losartan 20/10 mg/kg): did not differ significantly
Increase in strial capillary basement membrane width observed in vehicle-treated Alport mice ([2]; Alport mice treated 3-8.5 weeks of age with sparsentan or losartan): prevented
mean SCBM width±SD ([2]; Alport mice, losartan 20/10 mg/kg from 3 weeks of age, TEM, n=5): 55.0±5.9 nm
Hearing loss after noise exposure vs vehicle-treated Alport mice ([2]; any frequency tested, losartan 20/10 mg/kg): no significant effect; also recorded: no significant difference
Stria vascularis pathology by TEM ([2]; treated Alport mice, FIGS. 14-23): variable pathology
UP/C ([3]; Alport mice, losartan 20/10 mg/kg from 3 wk, at 4 wk of age, mean ± SD, n = 8): 0.6 ± 1.3 mg/mg
UP/C ([3]; Alport mice, losartan 20/10 mg/kg, at 5 wk of age, mean ± SD): 6.7 ± 4.0 mg/mg
UP/C ([3]; Alport mice, losartan 20/10 mg/kg, at 6 wk of age, mean ± SD): 11.2 ± 5.7 mg/mg
BUN [3, 7]: 18.2 ± 3.5 mg/dL
Sclerotic Glomeruli (%) [3, 7]: 1.7 ± 3.3 %
UP/C [3, 7]: 11.5 ± 7.0 mg/mg
Fibrosis Score ([3]; Alport mice, losartan 20/10 mg/kg, at 7 wk, score 0=<5% to 5=75-100% COL1 area, mean ± SD): 0.0 ± 0.0
Development of nephropathy in Alport mice ([3]; sparsentan 120 mg/kg 28 days or losartan 20 mg/kg 7 days then 10 mg/kg 21 days, from 3 weeks of age): prevented
UP/C, BUN, glomerulosclerosis, and fibrosis vs. vehicle-treated Alport mice ([3]; sparsentan 120 mg/kg or losartan 20/10 mg/kg from 3 weeks of age, P<0.05): significant attenuation
TIF or glomerulosclerosis ([3]; sparsentan- or losartan-treated Alport mice, early intervention): little to no
UP/C ([4]; Alport mice late intervention, losartan 10 mg/kg for 14 days from 5 wk of age, mean ± SD, n = 8): 18.1 ± 4.6 mg/mg
BUN [4, 8]: 15.5 ± 3.4 mg/dL
GS (% Sclerotic glomeruli) [4, 8]: 16.0 ± 11.9*^$ %
TIF ([4]; Alport mice late intervention, losartan 10 mg/kg, tubulointerstitial fibrosis score, mean ± SD): 1.0 ± 1.2
UP/C and fibrosis vs. vehicle-treated Alport mice ([4]; losartan 10 mg/kg, late intervention): not significant
Attenuation of BUN and glomerulosclerosis vs. vehicle-treated Alport mice ([4]; losartan 10 mg/kg, late intervention, P<0.05): significant
Development of fibrosis, CD45^+ leucocyte infiltration, and glomerulosclerosis ([4]; sparsentan 120 mg/kg or losartan 10 mg/kg, 5-7 weeks of age): attenuated; also recorded: prevented
Accumulation of laminin α2 in stria [5]: did not appear different from vehicle-treated Alport mice
Lifespan compared to vehicle-treated Alport mice [6]: significantly longer; also recorded: significantly greater
